In patent US20180340933A1, “Soybean Allergy Related Epitopes” (Fraunhofer-Gesellschaft zur Foerderung der angewandten …, priority 2015, published 2018):
Ends that are not written are not given here.

Experiments:
Assay type in all cases: binding, human
[1] = test system: IgE of sera from soybean-sensitive patients; experiment: Peptide microarray, immune status of soybean-sensitive patients: IgE detection; details: sera from 50 patients, diluted 1:50; positive = signal to noise ratio above 5
Source text: (§1) Epitope candidates were supplied externally (Neundorf, University of Cologne, Germany). The peptide is synthesised with the following structure: Ac-N-epitope sequence-C-Ebes-Lys(γ-N3)-amide (Ebes=amino-3,6-dioxaoctyl-succinamic acid). The peptide sequences were based on either the naïve soybean protein sequence (Pr) or the mimotope from phage display experiment (Ph). The peptide length varied between eight and nineteen amino acids. Glass slides were coated with Dibenzocyclooctyl (DBCO). The peptides were immobilized using different concentrations (81 ng/μl, 27 ng/μl or 9 ng/μl) on glymo-covered slides using click chemistry.
(§2) Each slide was blocked for 30 min with PBS containing 0.1% (v/v) Tween-20 and 1% (w/v) BSA, pH 7.4. For the incubation with sera cover slides (HybriWell™. 60 mm×21 mm×0.15) were used. Sera from 50 patients with differently intense prick reaction to soy milk were tested. The slides were incubated with 100 μl sera from the soybean-sensitive patients diluted 1:50 in blocking buffer overnight at 4° C. After two washes in washing buffer (PBS containing 0.1% (v/v) Tween-20, pH 7.4) the slides were shaken at 200 rpm for 60 min in a mouse-anti human IgE antibody (Abcam, Cambridge, UK, ab99834) diluted to 100 ng/ml or goat-anti human IgG antibody Cy5 (Abcam, Cambridge, UK, ab97172) diluted to 100 ng/ml in blocking buffer. After two further washes, bound IgG and IgE were detected by incubating the array for 60 min at room temperature with the secondary Cy5-labeled goat anti-mouse antibody (life technologies, Thermo Fisher Scientific, Waltham, Mass., USA, A10524) diluted to 400 ng/ml in blocking buffer. Fluorescence signals on the array were detected in a microarray reader (Geneprix 4200A) at 635 nm and the data were evaluated using GenePix® Pro 6 software to determine the signal intensity of each peptide spot. The software calculated the signal to noise ratio (SNR) for every spot. An overall threshold of 5 signal to noise ratio units was set, and signals above this threshold were assumed to indicate positive recognition by the patient sera.

[2] = test system: IgG of sera from soybean-sensitive patients; experiment: Peptide microarray, immune status of soybean-sensitive patients: IgG detection; details: sera from 50 patients, diluted 1:50; positive = signal to noise ratio above 5
Source text: as §1, §2

[3] = test system: antibodies (IgE and IgG) in sera of soybean-protein sensitive patients; experiment: Peptide microarray, recognition of peptides by patient sera (IgE and IgG, total); details: sera from 50 patients
Source text: as §1, §2

[4] = test system: antibodies of serum from patients with soy allergy; experiment: Phage display affinity selection and panning (ENTE1 library), sequencing and statistical motif analysis; details: for all three epitopes (SEQ ID NO.: 17, 20, 15) recognized by the same patient: 23 patients; for epitope recognized by patients / two epitopes (SEQ ID NO.: 15, SEQ ID NO.: 17) recognized by the same patients: number of patients out of 23; for sequence count (lcount): 2013_S1_2. Panning
Source text: Strong immunodominant allergic proteins, such as P34 thiol protease (Gly m Bd 30K), are known to induce allergic reactions, whereas other soybean proteins, although no potent inducers of a primary allergic response, can nevertheless trigger effector responses due to their binding by IgE. […] For example, only 65% of soybean sensitive individuals carry IgE recognizing P34 thiol protease (Gly m Bd 30K), which is considered one of the strongest allergenic soybean proteins (Yang et al., 2011). […] To identify many specific epitopes, i.e. amino acid sequences of soybean proteins, recognized by antibodies of sensitive patients, with high resolution down to the individual amino acids involved, the inventors applied a novel approach using a specific random phage library (EP 14 166 662.8). This phage library is generated using triplet codons with specific limitations, such that most amino acids are regularly represented throughout the entire library. In consequence, the library covers an unusually broad range of sequence variability and allows particular reliable statistical analysis. The library was contacted with serum samples derived from a biobank of 50 different soybean protein sensitive patients. After phage selection, the amino acid sequences that were bound by the patients' antibodies (anti-[allergen antibody] amino acid sequence) were identified by next generation sequencing and the results statistically analyzed. To confirm the allergy relevance of the identified amino acid sequences, their reactivity with patient IgE was determined by peptide arrays. Thereby, the inventors identified more than 300 potentially allergenic epitopes from different soybean proteins. The identified epitopes could be assigned to a total of 23 soybean proteins (Table 1) including P34 thiol protease (Gly m Bd 30K), β-conglycinin (Gly m Bd60 K) and Gly m Bd 28K, which are considered major soybean allergenic proteins (Yang et al., 2011).
24 μg of serum protein from patients with soy allergy were diluted in 2.5 ml PBS and coated in protein binding Immuno™ Tubes with Maxisorp™ for 1 h at 4° C. at 18 rpm (negative control: PBS). The coated tubes were washed with 2.5 ml blocking buffer (5% NFDM/1×PBS) and incubated with 4 ml blocking buffer at 4° C. for at least 15 min (18 rpm). The tubes were washed three times with 4 ml wash buffer I (1×PBS). 1 ml blocking buffer containing 30 μg of non-allergic serum protein and the phage library ENTE1 was added to each tube. The tubes were incubated for 2 h at 4° C. (18 rpm). After incubation, the tubes were washed 5 times with 1 ml 0.1% Tween/1×PBS and subsequently with 0.5% Tween/1×PBS. Then the bound phages were eluted using 1 ml of elution buffer (0.1 M Glycin.HCl pH 2.2). The tubes were incubated 5 min and vortexed several times. The eluate was immediately neutralized with 200 μl neutralization buffer (1 M Tris.HCl pH 8.2). In the first selection round 4×10^11 cfu of the ENTE1-library were used per tube. In the second selection round 1000×the recovered phages were inserted.
TG1 (λ) cells were grown in 250 ml baffled culture flasks in 10 ml dYT at 37° C. until they reached an OD600 about 0.5-1.0. The cells were incubated with eluted phage for 20 min at 37° C. with 100 rpm agitation. After incubation, the solution was immediately poured on dYT-agar plates (25×25 cm) containing 200 μg/ml ampicillin and incubated overnight at 30° C.
After overnight incubation the colonies were resuspended in 25 ml dYT containing 1×10^10 cfu/ml M13K07. The cells were diluted in 25 ml dYT containing 500 μg/ml ampicillin and 1×10^10 cfu/ml M13K07 using a 250 ml baffled culture flasks to obtain a cell density of OD600 0.5. The cells were incubated for 1 h at 37° C. with 180 rpm agitation. Afterwards the culture was growing about 13 h at 30° C. with 180 rpm agitation. […]

| Substance | Number of IgE-positive sera [1] | Number of IgG-positive sera [2] | total (IgE- and IgG-positive sera) [3] | other results |
| --- | --- | --- | --- | --- |
| DEGEQPRPFPFPRPR (peptide P7) [54] | 2 | 2 | 4 |  |
| EFLKYQQEQG (peptide P12) [127] | 12 | 12 | 24 |  |
| EIPRPR (glycine max) [SEQ ID NO.: 20] |  |  |  | all three epitopes (SEQ ID NO.: 17, 20, 15) recognized by the same patient [4]: one; epitope recognized by patients [4]: 3/23 |
| EVSFASQVLIY (peptide P3) [94] | 6 | 3 | 9 |  |
| FDQKESQHFS (peptide P17) [345] | 0 | 1 | 2 |  |
| GEIMCWREVVTQHQQHA (glycine max) [SEQ ID NO.: 707] |  |  |  | sequence count (lcount) [4]: 122 |
| GFNLCNRDRPAP (Ac-GFNLCNRDRPAP; not fully specified (C-terminus); also: Ebes linker, place not given here, Lys(azide), place not given here) [Peptide P1, 100] | 4 | 4 | 8 |  |
| GIEPCSKYSQHQQHVQN (glycine max) [SEQ ID NO.: 706] |  |  |  | sequence count (lcount) [4]: 250 |
| GVYNSQVDDEEEQNQRD (peptide P13) [159] | 7 | 1 | 8 |  |
| GYNPCRQEEDEELHHKC (peptide P19) [104] | 9 | 6 | 15 |  |
| HAANVVGNKESQREAR [Peptide P18] | 8 | 1 | 9 |  |
| HIQEEECEGDL (peptide P8) [50] | 2 | 2 | 4 |  |
| HITFSREEGSI (peptide P5) [35] | 12 | 2 | 14 |  |
| HVVEQEFLD (peptide P14) [126] | 23 | 5 | 28 |  |
| ISQQDRHRI (peptide P16) [154] | 28 | 13 | 42 |  |
| KVLFSREEGQQQ (peptide P6) [35] | 21 | 9 | 31 |  |
| NSERD (glycine max) [SEQ ID NO.: 15] |  |  |  | all three epitopes (SEQ ID NO.: 17, 20, 15) recognized by the same patient [4]: one; epitope recognized by patients [4]: 7/23; two epitopes (SEQ ID NO.: 15, SEQ ID NO.: 17) recognized by the same patients [4]: 5/23 |
| QDQEEDEEDE (peptide P20) [104] | 5 | 2 | 7 |  |
| QHQQ |  |  |  | motive count, first panning ([4]; Serum 1, 1. Panning round): 407 counts; motive count, second panning ([4]; Serum 1, 2. Panning round): 825 counts |
| RNQACHA (glycine max) [SEQ ID NO.: 17] |  |  |  | all three epitopes (SEQ ID NO.: 17, 20, 15) recognized by the same patient [4]: one; epitope recognized by patients [4]: 15/23; two epitopes (SEQ ID NO.: 15, SEQ ID NO.: 17) recognized by the same patients [4]: 5/23 |
| RRFYLAGNQEQEFL (peptide P15) [126] | 3 | 2 | 6 |  |
| SDKYQEEFQPR (peptide P10) [127] | 10 | 1 | 12 |  |
| SHHDQPRQHA (peptide P4) [28] | 12 | 6 | 18 |  |
| SQSHGFHGLCNRDHNCA (peptide P2) [100] | 7 | 1 | 8 |  |
| TEKYQQNSSG (peptide P11) [127] | 2 | 3 | 5 |  |
| VEEEEECEEGQI (peptide P9) [50] | 32 | 17 | 50 |  |
